# In patent US6602864B1, “Sulfonic acid or sulfonylamino N-(heteroaralkyl)-azaheterocyclylamide compounds” (Aventis Pharma Deutschland GmbH, priority 1996, dated 2003):
# Counter-ions that a name gives are not always drawn.
# Target: Factor Xa (Homo sapiens, UniProt P00742)
# Assay: Enzyme assay with purified enzyme and peptide-p-nitroanilide substrate (IC50, apparent Ki)
# Format: biochemical
# Settings: library product after deprotection with 20% TFA; read-out: IC50 against Factor Xa
# Description: All enzyme assays are carried out at room temperature in 96-well microtiter plates using a final enzyme concentration of 1 nM. The concentrations of factor Xa and thrombin are determined by active site titration and the concentrations of all other enzymes are based on the protein concentration supplied by the manufacturer. Compounds according to the invention are dissolved in DMSO, diluted with their respective buffers and assayed at a maximal final DMSO concentration of 1.25%. Compound dilutions are added to wells containing buffer and enzyme and pre-equilibrated for […]. The enzyme reactions are initiated by the addition of substrate and the color developed from the hydrolysis of the peptide-p-nitroanilide substrates is monitored continuously for 5 minutes at 405 nm on a Vmax microplate reader (Molecular Devices). Under these conditions, less than 10% of the substrate is utilized in all assays. […] The apparent Ki values are then determined according to the Cheng-Prusoff equation (IC50=Ki [1+[S]/Km]) assuming competitive inhibition kinetics.
# Factor Xa, sequence (P00742 235-488 limits assumed): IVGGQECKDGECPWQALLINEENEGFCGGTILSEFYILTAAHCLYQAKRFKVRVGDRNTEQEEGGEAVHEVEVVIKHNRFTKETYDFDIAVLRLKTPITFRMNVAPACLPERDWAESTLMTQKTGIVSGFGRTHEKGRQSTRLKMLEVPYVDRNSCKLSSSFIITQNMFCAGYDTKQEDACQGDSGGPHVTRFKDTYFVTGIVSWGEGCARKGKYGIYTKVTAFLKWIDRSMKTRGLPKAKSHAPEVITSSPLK
# Factor Xa, sequence (P00742 41-179 partner limits assumed): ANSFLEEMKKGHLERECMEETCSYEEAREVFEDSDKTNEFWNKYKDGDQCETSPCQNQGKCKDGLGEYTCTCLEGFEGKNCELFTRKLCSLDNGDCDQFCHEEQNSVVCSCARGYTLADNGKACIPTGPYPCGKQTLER
smiles,measurement,value
"O=C1[C@@H](NS(=O)(=O)c2cc3ccc(Cl)cc3s2)CCN1Cc1cc2ncccc2[nH]1 [Example 46, 6-Chloro-benzo[b]thiophene-2-sulfonic Acid [2-oxo-1-(1H-Pyrrolo[3,2-b]pyridin-2-ylmethyl)-pyrrolidin-3-(S)-yl]-amide Trifluoroacetate]",IC50,< 500 nM
